Measured values reported in publication PMC13476069, “Cryo-EM structure of the bicarbonate receptor GPR30” (eLife, 2026).

Columns and labels:
[1] = target: T1, human GPR30 wild-type (WT) (Homo sapiens, UniProt Q99527); conditions: physiological concentration of bicarbonate ions; ref Jo-Watanabe et al., 2024; cited from earlier work
GPR30 E115^2.61 mutant = conditions: effect of E115^2.61 mutation; ref Jo-Watanabe et al., 2024; cited from earlier work
mock HEK293 cells = conditions: mock stable HEK293 cells; NaHCO3; normalized to 50 µM ATP; four-parameter fit
Experimental: (§1) HEK293A cells (Thermo Fisher Scientific, Cell lines are authenticated by the supplier. No additional authentication was performed by the authors in this study. Mycoplasma contamination is not tested.) were maintained at 37°C and 5% CO2. […] Stable cell lines were established through antibiotic drug selection. The HEK293A cells were transfected with the N-terminal HA-tagged wild-type and mutant Gpr30 and maintained in the culture medium containing 1 mg/ml of G418.
(§2) Stable HEK293 cells (2×10^4 cells/well) were seeded into a black wall and clear bottom 96-well plate 24 hr before the assay. […] The cells were washed twice with HEPES buffer. The cells were stimulated with indicated concentrations of NaHCO3 and 50 µM ATP at 37°C and 0.03% CO2. The fluorescence intensity was analyzed using FlexStation 3 (Molecular Devices, Ex/Em = 490/525 nm). The difference between the maximum and minimum fluorescent values during 15–60 s was normalized by those with ATP stimulation. Nonlinear regression (four-parameter) was used for curve fitting, and EC50 and Top (maximum response) were calculated.
(§3) Nonlinear regression (four-parameter) was used for curve-fitting over the data shown in Figure 3F, and EC50 and Top (maximum response) were calculated. The values of cell surface and total expression are derived from Figure 3.—figure supplement 1 and 3, respectively.

[2] = target: T2, human GPR30 Q138^3.33A mutant (Homo sapiens, UniProt Q99527, Q138A); conditions: effect of Q138^3.33 mutation; ref Jo-Watanabe et al., 2024; cited from earlier work
T2 sequence (Q99527 whole entry Q138A): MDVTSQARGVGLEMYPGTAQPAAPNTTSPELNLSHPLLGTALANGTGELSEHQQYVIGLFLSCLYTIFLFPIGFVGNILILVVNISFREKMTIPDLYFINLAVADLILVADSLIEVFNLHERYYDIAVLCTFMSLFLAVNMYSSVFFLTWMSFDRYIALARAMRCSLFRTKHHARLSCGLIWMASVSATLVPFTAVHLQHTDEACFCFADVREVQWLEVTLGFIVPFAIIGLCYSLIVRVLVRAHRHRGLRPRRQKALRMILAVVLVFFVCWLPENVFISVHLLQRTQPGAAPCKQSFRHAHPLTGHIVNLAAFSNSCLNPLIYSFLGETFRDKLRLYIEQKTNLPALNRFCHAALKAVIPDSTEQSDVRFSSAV

GPR30 H307^7.36 mutant = conditions: effect of H307^7.36 mutation; ref Jo-Watanabe et al., 2024; cited from earlier work
[3] = target: human GPR30 N276^6.52A mutant (Homo sapiens, UniProt Q99527, N276A); conditions: stable HEK293, HA-tagged N276^6.52A, NaHCO3, four-parameter fit
Sequence of human GPR30 N276^6.52A mutant (Q99527 whole entry N276A): as the sequence (Q99527 whole entry Q138A) above, with A138Q, N276A counted along it
Text: (§4) Human Gpr30 cDNA was obtained from human hepatoblastoma-derived HepG2 cells. The coding sequences of human Gpr30 were inserted into the multi-cloning site of the plasmid vector pCXN2, which was generated in our laboratory via modification of pCAGGS, between the KpnI and EcoRI sites. The […] HA-tagged Gpr30 was amplified using a reverse primer containing the HA sequence. One amino acid mutation of human GPR30 was generated as follows: the targeted amino acid was changed to alanine (GCC) using a two-step PCR method with the QuikChange Primer Design Program by Agilent (https://www.agilent.com/store/primerDesignProgram.jsp), and the coding sequence with each mutation was inserted into the multi-cloning site of pCXN2 between the KpnI and EcoRI sites. The mutations generated were D111A, E121A, R122A, D125A, S134A, Q138A, D210A, Q215A, E218A, N276A, Q296A, C207A, P71A, and H307A.
as §1, §2, §3

[4] = target: human GPR30 P71^1.44A mutant (Homo sapiens, UniProt Q99527, P71A)
Sequence of human GPR30 P71^1.44A mutant (Q99527 whole entry P71A): as the sequence (Q99527 whole entry Q138A) above, with P71A, A138Q counted along it
Text: as §4, §1, §2, §3

[5] = target: human GPR30 E121^ECL1A mutant (Homo sapiens, UniProt Q99527, E121A); conditions: stable HEK293, HA-tagged E121^ECL1A, NaHCO3, four-parameter fit
Sequence of human GPR30 E121^ECL1A mutant (Q99527 whole entry E121A): as the sequence (Q99527 whole entry Q138A) above, with E121A, A138Q counted along it
Text: as §4, §1, §2, §3

[6] = target: human GPR30 R122^ECL1A mutant (Homo sapiens, UniProt Q99527, R122A); conditions: stable HEK293, HA-tagged R122^ECL1A, NaHCO3, four-parameter fit
Sequence of human GPR30 R122^ECL1A mutant (Q99527 whole entry R122A): as the sequence (Q99527 whole entry Q138A) above, with R122A, A138Q counted along it
Text: as §4, §1, §2, §3

[7] = target: human GPR30 D111^2.56A mutant (Homo sapiens, UniProt Q99527, D111A); conditions: stable HEK293, HA-tagged D111^2.56A, NaHCO3, four-parameter fit
Sequence of human GPR30 D111^2.56A mutant (Q99527 whole entry D111A): as the sequence (Q99527 whole entry Q138A) above, with D111A, A138Q counted along it
Text: as §4, §1, §2, §3

[8] = target: human GPR30 E218^5.42A mutant (Homo sapiens, UniProt Q99527, E218A); conditions: stable HEK293, HA-tagged E218^5.42A, NaHCO3, four-parameter fit
Sequence of human GPR30 E218^5.42A mutant (Q99527 whole entry E218A): as the sequence (Q99527 whole entry Q138A) above, with A138Q, E218A counted along it
Text: as §4, §1, §2, §3

[9] = target: human GPR30 D125^ECL1A mutant (Homo sapiens, UniProt Q99527, D125A)
Sequence of human GPR30 D125^ECL1A mutant (Q99527 whole entry D125A): as the sequence (Q99527 whole entry Q138A) above, with D125A, A138Q counted along it
Text: as §4, §1, §2, §3

[10] = target: human GPR30 C207^ECL2A mutant (Homo sapiens, UniProt Q99527, C207A)
Sequence of human GPR30 C207^ECL2A mutant (Q99527 whole entry C207A): as the sequence (Q99527 whole entry Q138A) above, with A138Q, C207A counted along it
Text: as §4, §1, §2, §3

[11] = target: human GPR30 Q215^5.39A mutant (Homo sapiens, UniProt Q99527, Q215A); conditions: stable HEK293, HA-tagged Q215^5.39A, NaHCO3, four-parameter fit
Sequence of human GPR30 Q215^5.39A mutant (Q99527 whole entry Q215A): as the sequence (Q99527 whole entry Q138A) above, with A138Q, Q215A counted along it
Text: as §4, §1, §2, §3

[12] = target: T1, human GPR30 wild-type (WT); conditions: stable HEK293, HA-tagged WT GPR30, NaHCO3, four-parameter fit
Text: as §4, §1, §2, §3

[13] = target: T2, human GPR30 Q138^3.33A mutant
Text: as §4, §1, §2, §3

[14] = target: human GPR30 Q296^ECL3A mutant (Homo sapiens, UniProt Q99527, Q296A); conditions: stable HEK293, HA-tagged Q296^ECL3A, NaHCO3, four-parameter fit
Sequence of human GPR30 Q296^ECL3A mutant (Q99527 whole entry Q296A): as the sequence (Q99527 whole entry Q138A) above, with A138Q, Q296A counted along it
Text: as §4, §1, §2, §3

[15] = target: human GPR30 S134^3.29A mutant (Homo sapiens, UniProt Q99527, S134A); conditions: stable HEK293, HA-tagged S134^3.29A, NaHCO3, four-parameter fit
Sequence of human GPR30 S134^3.29A mutant (Q99527 whole entry S134A): as the sequence (Q99527 whole entry Q138A) above, with S134A, A138Q counted along it
Text: as §4, §1, §2, §3

[16] = target: human GPR30 D210^ECL2A mutant (Homo sapiens, UniProt Q99527, D210A)
Sequence of human GPR30 D210^ECL2A mutant (Q99527 whole entry D210A): as the sequence (Q99527 whole entry Q138A) above, with A138Q, D210A counted along it
Text: as §4, §1, §2, §3

[17] = stable HEK293, HA-tagged D125^ECL1A, NaHCO3, four-parameter fit
[18] = Q138^3.33A vs wild-type, calcium assay
[19] = stable HEK293, HA-tagged Q138^3.33A, NaHCO3, four-parameter fit
[20] = stable HEK293, HA-tagged D210^ECL2A, NaHCO3, four-parameter fit

T1 sequence (Q99527 whole entry): as the sequence (Q99527 whole entry Q138A) above, with A138Q counted along it

## O=C(O)O [bicarbonate]
[1]
  activation of GPR30, Gq-coupled calcium responses: activates
GPR30 E115^2.61 mutant
  bicarbonate-dependent calcium response: abolish
Mock HEK293 cells
  Top (maximum response): 0.08132
[2]
  bicarbonate-dependent calcium response: abolish
GPR30 H307^7.36 mutant
  bicarbonate-dependent calcium response: abolish
[3]
  EC50: 2.89 mM
  LogEC50: 0.4605
[3]; normalized to 50 µM ATP
  Top (maximum response): 0.948
[4]; effect of P71^1.44A mutation, stable HEK293
  bicarbonate-dependent calcium responses: abolished
[4]; stable HEK293, HA-tagged P71^1.44A, NaHCO3, normalized to 50 µM ATP, four-parameter fit
  Top (maximum response): 0.1079
[5]
  EC50: 4.71 mM
  LogEC50: 0.6733
[5]; normalized to 50 µM ATP
  Top (maximum response): 0.9457
[6]
  EC50: 3.46 mM
  LogEC50: 0.5393
[6]; normalized to 50 µM ATP
  Top (maximum response): 0.877
[7]
  EC50: 2.35 mM
  LogEC50: 0.3703
[7]; normalized to 50 µM ATP
  Top (maximum response): 1.244
[8]
  EC50: 3.72 mM
  LogEC50: 0.5701
[8]; normalized to 50 µM ATP
  Top (maximum response): 0.9426
[9]; effect of D125^ECL1A mutation, stable HEK293
  bicarbonate-dependent calcium responses: abolished
[9]; [17]
  EC50: Unstable
  LogEC50: Unstable
[9]; stable HEK293, HA-tagged D125^ECL1A, NaHCO3, normalized to 50 µM ATP, four-parameter fit
  Top (maximum response): 0.0868
[10]; effect of C207^ECL2A mutation, stable HEK293
  bicarbonate-dependent calcium responses: abolished
[10]; stable HEK293, HA-tagged C207^ECL2A, NaHCO3, normalized to 50 µM ATP, four-parameter fit
  Top (maximum response): 0.06277
[11]
  EC50: 4.51 mM
  LogEC50: 0.6544
[11]; normalized to 50 µM ATP
  Top (maximum response): 0.8471
[12]
  EC50: 3.83 mM
  LogEC50: 0.5838
[12]; normalized to 50 µM ATP
  Top (maximum response): 1.155
[13]; [18]
  EC50 compared with wild-type GPR30: higher
  maximum response relative to GPR30 wild-type: one-third
[13]; effect of Q138^3.33A mutation, stable HEK293
  reactivity to bicarbonate (calcium response): reduced reactivity
[13]; [19]
  EC50: 10.8 mM
  LogEC50: 1.033
[13]; stable HEK293, HA-tagged Q138^3.33A, NaHCO3, normalized to 50 µM ATP, four-parameter fit
  Top (maximum response): 0.4166
[14]
  EC50: 3.09 mM
  LogEC50: 0.4903
[14]; normalized to 50 µM ATP
  Top (maximum response): 0.9637
[15]
  EC50: 4.97 mM
  LogEC50: 0.6966
[15]; normalized to 50 µM ATP
  Top (maximum response): 0.8079
[16]; D210^ECL2A vs wild-type, calcium assay
  maximum response relative to GPR30 wild-type: half
[16]; effect of D210^ECL2A mutation, stable HEK293
  reactivity to bicarbonate (calcium response): reduced reactivity
[16]; [20]
  EC50: 5.41 mM
  LogEC50: 0.7335
[16]; stable HEK293, HA-tagged D210^ECL2A, NaHCO3, normalized to 50 µM ATP, four-parameter fit
  Top (maximum response): 0.6256
